Experimental data published in the supplement of paper PMC10627819.

Assays:
Details in all cases: main component drawn
B. subtilis 168 [1] = assay: fitness (endpoint OD595 vs no drug) (fraction); higher = more growth
How it was run: (§1)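 Fitness is computed from the optical density at which cultures reach stationary phase, divided by the robust mean of no-drug control wells. Any value above 1 is set to 1. Cultures started at OD595 0.01 in 384-well plates with TSB, LB Lennox or CY at 37 °C, and OD595 was read every 30 min for 14 h against a first-reading background.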

S. pneumoniae D39V [2] = assay: as above
How it was run: as §1

B. subtilis 168 [3] = assay: Bliss interaction score (quartile over a dose matrix) (fitness difference); higher = more antagonism (negative = synergy)
How it was run: (§2)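 Fitness was defined as normalised growth: OD595 at the start of stationary phase divided by the plate's robust no-drug mean and capped at 1. Single-drug fitness was inferred from combination measurements. The Bliss score is observed fitness minus the product of the single-drug values, summarised by quartiles across technical, biological and donor/recipient replicates.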

S. aureus DSM 20231 = assay: as above
How it was run: as §2

S. aureus Newman = assay: as above
How it was run: as §2

S. pneumoniae D39V [4] = assay: as above
How it was run: as §2

[5] = first compound 0.0625 µg/mL, partner 0.125 µg/mL
[6] = first compound 0.125 µg/mL, partner 0.125 µg/mL
[7] = first compound 0.25 µg/mL, partner 0.125 µg/mL
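Wherever Bliss interaction score (quartile over a dose matrix) is given: first quartile when negative (synergy) and third quartile when positive (antagonism).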
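Wherever fitness (endpoint OD595 vs no drug) is given: OD595 on entry to stationary phase over no-drug wells; at most 1.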

For `CNC(C)C1CCC(N)C(OC2C(N)CC(N)C(OC3OCC(C)(O)C(NC)C3O)C2O)O1` (stereo not drawn) [Gentamicin] + CN(C)C(=O)C(CCN1CCC(O)(c2ccc(Cl)cc2)CC1)(c1ccccc1)c1ccccc1 [Loperamide], the fitness (B. subtilis 168 [1]; first compound 0.0625 µg/mL, partner 100 µg/mL) was 0.0528, the fitness (B. subtilis 168 [1]; first compound 0.125 µg/mL, partner 25 µg/mL) was 0.0373 and the fitness (B. subtilis 168 [1]; first compound 0.125 µg/mL, partner 50 µg/mL) was 0.0589. The fitness (B. subtilis 168 [1]; first compound 0.125 µg/mL, partner 100 µg/mL) was 0.0432, the fitness (B. subtilis 168 [1]; first compound 0.25 µg/mL, partner 25 µg/mL) was 0.0438 and the fitness (B. subtilis 168 [1]; first compound 0.25 µg/mL, partner 50 µg/mL) was 0.0483. For the same compound, the fitness (B. subtilis 168 [1]; first compound 0.25 µg/mL, partner 100 µg/mL) was 0.0409, the fitness (S. pneumoniae D39V [2]; first compound 2 µg/mL, partner 17.14 µg/mL) was 0.968 and the fitness (S. pneumoniae D39V [2]; first compound 2 µg/mL, partner 20 µg/mL) was ≥ 1. The fitness (S. pneumoniae D39V [2]; first compound 2 µg/mL, partner 34.28 µg/mL) was 0.967, the fitness (S. pneumoniae D39V [2]; first compound 2 µg/mL, partner 40 µg/mL) was 0.994 and the fitness (S. pneumoniae D39V [2]; first compound 2 µg/mL, partner 68.57 µg/mL, one replicate) was ≥ 1. The fitness (S. pneumoniae D39V [2]; first compound 2 µg/mL, partner 80 µg/mL) was 0.193, the fitness (S. pneumoniae D39V [2]; first compound 4 µg/mL, partner 17.14 µg/mL) was ≥ 1 and the fitness (S. pneumoniae D39V [2]; first compound 4 µg/mL, partner 20 µg/mL) was ≥ 1. For the same compound, the fitness (S. pneumoniae D39V [2]; first compound 4 µg/mL, partner 34.28 µg/mL) was 0.98, the fitness (S. pneumoniae D39V [2]; first compound 4 µg/mL, partner 40 µg/mL) was ≥ 1 and the fitness (S. pneumoniae D39V [2]; first compound 4 µg/mL, partner 68.57 µg/mL, one replicate) was 0.924. For the same compound, the fitness (S. pneumoniae D39V [2]; first compound 8 µg/mL, partner 17.14 µg/mL) was 0.984, the fitness (S. pneumoniae D39V [2]; first compound 8 µg/mL, partner 20 µg/mL) was ≥ 1 and the fitness (S. pneumoniae D39V [2]; first compound 8 µg/mL, partner 34.28 µg/mL) was 0.916. For the same compound, the fitness (S. pneumoniae D39V [2]; first compound 8 µg/mL, partner 40 µg/mL) was ≥ 1, the fitness (S. pneumoniae D39V [2]; first compound 8 µg/mL, partner 68.57 µg/mL, one replicate) was 0.937 and the Bliss interaction score (B. subtilis 168 [3]) was -0.159. The Bliss interaction score (S. aureus DSM 20231) was 0.0997, the Bliss interaction score (S. aureus Newman) was 0.0802 and the Bliss interaction score (S. pneumoniae D39V [4]) was 0.0792.
`CNC(C)C1CCC(N)C(OC2C(N)CC(N)C(OC3OCC(C)(O)C(NC)C3O)C2O)O1` (stereo not drawn) [Gentamicin] + COc1cc(Cc2cnc(N)nc2N)cc(OC)c1OC [Trimethoprim] gave a fitness (B. subtilis 168 [1]; first compound 0.0625 µg/mL, partner 0.1 µg/mL, one replicate) of 0.953, a fitness (B. subtilis 168 [1]; [5]) of 0.661 and a fitness (B. subtilis 168 [1]; first compound 0.0625 µg/mL, partner 0.2 µg/mL, one replicate) of 0.787. It also gave a fitness (B. subtilis 168 [1]; first compound 0.0625 µg/mL, partner 0.25 µg/mL) of 0.53, a fitness (B. subtilis 168 [1]; first compound 0.0625 µg/mL, partner 0.4 µg/mL, one replicate) of 0.539 and a fitness (B. subtilis 168 [1]; first compound 0.0625 µg/mL, partner 1 µg/mL, one replicate) of 0.0449. For the same compound, the fitness (B. subtilis 168 [1]; first compound 0.0625 µg/mL, partner 2 µg/mL, one replicate) was 0.0512, the fitness (B. subtilis 168 [1]; first compound 0.125 µg/mL, partner 0.1 µg/mL, one replicate) was 0.716 and the fitness (B. subtilis 168 [1]; [6]) was 0.548. It also gave a fitness (B. subtilis 168 [1]; first compound 0.125 µg/mL, partner 0.2 µg/mL, one replicate) of 0.294, a fitness (B. subtilis 168 [1]; first compound 0.125 µg/mL, partner 0.4 µg/mL, one replicate) of 0.0552 and a fitness (B. subtilis 168 [1]; first compound 0.125 µg/mL, partner 1 µg/mL, one replicate) of 0.0304. The fitness (B. subtilis 168 [1]; first compound 0.125 µg/mL, partner 2 µg/mL, one replicate) was 0.0461, the fitness (B. subtilis 168 [1]; first compound 0.25 µg/mL, partner 0.1 µg/mL, one replicate) was 0.0356 and the fitness (B. subtilis 168 [1]; [7]) was 0.0923. For the same compound, the fitness (B. subtilis 168 [1]; first compound 0.25 µg/mL, partner 0.2 µg/mL, one replicate) was 0.0576, the fitness (B. subtilis 168 [1]; first compound 0.25 µg/mL, partner 0.25 µg/mL) was 0.0847 and the fitness (B. subtilis 168 [1]; first compound 0.25 µg/mL, partner 0.4 µg/mL, one replicate) was 0.0438. For the same compound, the fitness (B. subtilis 168 [1]; first compound 0.25 µg/mL, partner 0.5 µg/mL) was 0.041, the fitness (B. subtilis 168 [1]; first compound 0.25 µg/mL, partner 1 µg/mL, one replicate) was 0.0435 and the fitness (B. subtilis 168 [1]; first compound 0.25 µg/mL, partner 2 µg/mL, one replicate) was 0.0503. The Bliss interaction score (B. subtilis 168 [3]) was -0.201, the Bliss interaction score (S. aureus DSM 20231) was -0.0371 and the Bliss interaction score (S. aureus Newman) was 0.0637. For the same compound, the Bliss interaction score (S. pneumoniae D39V [4]) was -0.193.
`CNC(C)C1CCC(N)C(OC2C(N)CC(N)C(OC3OCC(C)(O)C(NC)C3O)C2O)O1` (stereo not drawn) [Gentamicin] + C[C@H]1COc2c(N3CCN(C)CC3)c(F)cc3c(=O)c(C(=O)O)cn1c23 [Levofloxacin] was tested, and the fitness (B. subtilis 168 [1]; first compound 0.0625 µg/mL, partner 0.001 µg/mL, one replicate) was 0.868, the fitness (B. subtilis 168 [1]; first compound 0.0625 µg/mL, partner 0.002 µg/mL) was 0.89 and the fitness (B. subtilis 168 [1]; first compound 0.0625 µg/mL, partner 0.0039 µg/mL) was 0.89. For the same compound, the fitness (B. subtilis 168 [1]; first compound 0.0625 µg/mL, partner 0.0078 µg/mL, one replicate) was 0.98, the fitness (B. subtilis 168 [1]; first compound 0.0625 µg/mL, partner 0.0312 µg/mL) was 0.0381 and the fitness (B. subtilis 168 [1]; first compound 0.0625 µg/mL, partner 0.0625 µg/mL) was 0.0442. The fitness (B. subtilis 168 [1]; [5]) was 0.0374, the fitness (B. subtilis 168 [1]; first compound 0.125 µg/mL, partner 0.001 µg/mL, one replicate) was 0.126 and the fitness (B. subtilis 168 [1]; first compound 0.125 µg/mL, partner 0.0078 µg/mL, one replicate) was 0.977. It also gave a fitness (B. subtilis 168 [1]; first compound 0.125 µg/mL, partner 0.0312 µg/mL) of 0.0387, a fitness (B. subtilis 168 [1]; first compound 0.125 µg/mL, partner 0.0625 µg/mL) of 0.046 and a fitness (B. subtilis 168 [1]; [6]) of 0.0388. It also gave a fitness (B. subtilis 168 [1]; first compound 0.25 µg/mL, partner 0.001 µg/mL, one replicate) of 0.0524, a fitness (B. subtilis 168 [1]; first compound 0.25 µg/mL, partner 0.002 µg/mL) of 0.206 and a fitness (B. subtilis 168 [1]; first compound 0.25 µg/mL, partner 0.0039 µg/mL) of 0.163. For the same compound, the fitness (B. subtilis 168 [1]; first compound 0.25 µg/mL, partner 0.0078 µg/mL, one replicate) was 0.259, the fitness (B. subtilis 168 [1]; first compound 0.25 µg/mL, partner 0.0312 µg/mL) was 0.0407 and the fitness (B. subtilis 168 [1]; first compound 0.25 µg/mL, partner 0.0625 µg/mL) was 0.0447. For the same compound, the fitness (B. subtilis 168 [1]; [7]) was 0.0485, the fitness (S. pneumoniae D39V [2]; first compound 2 µg/mL, partner 0.1725 µg/mL) was 0.98 and the fitness (S. pneumoniae D39V [2]; first compound 2 µg/mL, partner 0.2 µg/mL) was 0.901. For the same compound, the fitness (S. pneumoniae D39V [2]; first compound 2 µg/mL, partner 0.345 µg/mL) was 0.914, the fitness (S. pneumoniae D39V [2]; first compound 2 µg/mL, partner 0.4 µg/mL) was 0.75 and the fitness (S. pneumoniae D39V [2]; first compound 2 µg/mL, partner 0.69 µg/mL) was 0.636. It also gave a fitness (S. pneumoniae D39V [2]; first compound 2 µg/mL, partner 0.8 µg/mL) of 0.213, a fitness (S. pneumoniae D39V [2]; first compound 4 µg/mL, partner 0.1725 µg/mL) of 0.972 and a fitness (S. pneumoniae D39V [2]; first compound 4 µg/mL, partner 0.2 µg/mL) of 0.874. The fitness (S. pneumoniae D39V [2]; first compound 4 µg/mL, partner 0.345 µg/mL) was 0.902, the fitness (S. pneumoniae D39V [2]; first compound 4 µg/mL, partner 0.4 µg/mL) was 0.723 and the fitness (S. pneumoniae D39V [2]; first compound 4 µg/mL, partner 0.69 µg/mL) was 0.625. The fitness (S. pneumoniae D39V [2]; first compound 4 µg/mL, partner 0.8 µg/mL) was 0.21, the fitness (S. pneumoniae D39V [2]; first compound 8 µg/mL, partner 0.1725 µg/mL) was 0.98 and the fitness (S. pneumoniae D39V [2]; first compound 8 µg/mL, partner 0.2 µg/mL) was 0.865. For the same compound, the fitness (S. pneumoniae D39V [2]; first compound 8 µg/mL, partner 0.345 µg/mL) was 0.912, the fitness (S. pneumoniae D39V [2]; first compound 8 µg/mL, partner 0.4 µg/mL) was 0.671 and the fitness (S. pneumoniae D39V [2]; first compound 8 µg/mL, partner 0.69 µg/mL) was 0.438. The fitness (S. pneumoniae D39V [2]; first compound 8 µg/mL, partner 0.8 µg/mL) was 0.179, the Bliss interaction score (B. subtilis 168 [3]) was -0.0837 and the Bliss interaction score (S. aureus DSM 20231) was 0.0527. The Bliss interaction score (S. aureus Newman) was 0.0894 and the Bliss interaction score (S. pneumoniae D39V [4]) was -0.123.
